Test systems include MDA-MB-231 breast; SNB-19 CNS; HL-60(TB) leukemia; SW-620 colon; ACHN renal; HOP-62 NSCLC; NCI-H522 lung; T-47D breast; RPMI-8226 leukemia; SK-MEL-28 melanoma; NCI-H460 lung; CAKI-1 renal; MOLT-4 leukemia.
Holding throughout (assay): NCI tumour cell line growth inhibition, 48 h

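96-well plates; 48 h exposure; 5 concentrations. Endpoints by linear interpolation between flanking doses. Not reached: highest tested concentration assigned. At the TGI there is no net growth.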

In the case of `CC1C(c2ccccc2O)c2cc3c(cc2OC1N1CCCC1)OCO3` (centres undefined), the TGI in the experiment on MDA-MB-231 breast was 61.2 µM; in the experiment with SNB-19 CNS, greater than 100 µM; in the experiment on HL-60(TB) leukemia, 35.1 µM; in the experiment with SW-620 colon, 44.4 µM; in the experiment on ACHN renal, greater than 100 µM; in the experiment on HOP-62 NSCLC, 49.8 µM. The TGI in the experiment on NCI-H522 lung was 70.3 µM; in the experiment with T-47D breast it was greater than 100 µM; with RPMI-8226 leukemia, 57.5 µM; in the experiment on SK-MEL-28 melanoma it was 46.6 µM; with NCI-H460 lung it was 32.4 µM; with CAKI-1 renal, greater than 100 µM. In the experiment with MOLT-4 leukemia, this compound returned a TGI of 65 µM.

As to `COc1cc(Cn2c3c(c4cc(O)ccc42)C(=O)c2ccccc2C3=O)cc(OC)c1`, the TGI in the experiment on MDA-MB-231 breast was 23.6 µM; in the experiment with SNB-19 CNS, 25.4 µM; in the experiment on HL-60(TB) leukemia it was greater than 100 µM; with SW-620 colon it was greater than 100 µM; in the experiment with ACHN renal it was 7.61 µM; in the experiment on HOP-62 NSCLC it was 8.78 µM. Further, the TGI in the experiment with NCI-H522 lung is 12.5 µM; in the experiment on T-47D breast, 32.1 µM; in the experiment on RPMI-8226 leukemia it was 3.73 µM; with SK-MEL-28 melanoma, 28.4 µM; with NCI-H460 lung it was 32.9 µM; in the experiment on CAKI-1 renal it was 55.5 µM. The compound further yielded a TGI with MOLT-4 leukemia of 90.9 µM.

For `C[C@H](CCc1nc(C#N)c(N)o1)[C@H]1CC[C@H]2[C@@H]3[C@@H](O)CC4C[C@@H](O)CC[C@]4(C)[C@H]3C[C@@H](O)[C@]12C` (some centres undefined), the TGI in the experiment on MDA-MB-231 breast was 67.1 µM; with SNB-19 CNS, 57.5 µM; with HL-60(TB) leukemia, greater than 26.9 µM; in the experiment with SW-620 colon, 55 µM; with ACHN renal, greater than 90 µM; in the experiment on HOP-62 NSCLC, greater than 54.4 µM. Moreover, the TGI is 18.4 µM in the experiment on NCI-H522 lung; 85.6 µM in the experiment with T-47D breast; 28.6 µM in the experiment with RPMI-8226 leukemia; 47.2 µM with SK-MEL-28 melanoma; 54.9 µM in the experiment on NCI-H460 lung; greater than 100 µM with CAKI-1 renal. In the experiment with MOLT-4 leukemia, the TGI is greater than 59.7 µM.

For `CN1N=C(c2ccncc2)OC1c1ccc(Cl)c(Cl)c1` (centres undefined), the TGI with MDA-MB-231 breast, in the experiment with SNB-19 CNS, in the experiment with HL-60(TB) leukemia, in the experiment on SW-620 colon, in the experiment on ACHN renal and in the experiment with HOP-62 NSCLC was greater than 100 µM each time. The TGI in the experiment with NCI-H522 lung, in the experiment on T-47D breast, in the experiment on RPMI-8226 leukemia, in the experiment with SK-MEL-28 melanoma, in the experiment with NCI-H460 lung and in the experiment with CAKI-1 renal was greater than 100 µM in each case. Moreover, the TGI in the experiment on MOLT-4 leukemia is greater than 100 µM.

Consider `CC[C@H](CCCCC1CC[C@@H]2CC(=O)C[C@H]12)OC` (some centres undefined), for which the TGI in the experiment with MDA-MB-231 breast, in the experiment with SNB-19 CNS, in the experiment with HL-60(TB) leukemia, in the experiment on SW-620 colon, with ACHN renal and in the experiment on HOP-62 NSCLC was greater than 100 µM throughout. Besides, the TGI in the experiment with NCI-H522 lung, in the experiment with T-47D breast, in the experiment on RPMI-8226 leukemia, with SK-MEL-28 melanoma, in the experiment with NCI-H460 lung and in the experiment with CAKI-1 renal was greater than 100 µM in each case. In addition, the TGI in the experiment with MOLT-4 leukemia is greater than 100 µM.

On to `Nc1nc(Cl)c2ncn(Cc3ccccc3CCl)c2n1`, for which the TGI in the experiment with MDA-MB-231 breast is 9.61 µM; with SNB-19 CNS it was 27.5 µM; in the experiment on HL-60(TB) leukemia, greater than 100 µM; in the experiment with SW-620 colon it was 11.8 µM; in the experiment with ACHN renal it was 22 µM; with HOP-62 NSCLC it was 62.3 µM. Besides, the TGI in the experiment with NCI-H522 lung was 9.41 µM; with T-47D breast it was 83.9 µM; in the experiment with RPMI-8226 leukemia, greater than 100 µM; in the experiment on SK-MEL-28 melanoma it was 20.7 µM; with NCI-H460 lung it was 36.8 µM; in the experiment on CAKI-1 renal, 20.4 µM. The TGI in the experiment with MOLT-4 leukemia was greater than 100 µM.

Regarding `COc1cc(CNC(=O)CCCCCCCC/C=C/Br)ccc1O`, the TGI in the experiment on MDA-MB-231 breast, in the experiment with SNB-19 CNS, in the experiment on HL-60(TB) leukemia, in the experiment on SW-620 colon, in the experiment on ACHN renal and in the experiment with HOP-62 NSCLC was greater than 10 µM each time. Besides, the TGI in the experiment on NCI-H522 lung, in the experiment on T-47D breast, in the experiment with RPMI-8226 leukemia, with SK-MEL-28 melanoma, in the experiment with NCI-H460 lung and in the experiment on CAKI-1 renal was greater than 10 µM in each case. For the same compound, the TGI in the experiment on MOLT-4 leukemia is greater than 10 µM.

For `Cc1ccc(C2SC(N)=Nc3c2c(C)nn3C(=O)c2ccncc2)cc1` (centres undefined), the TGI with MDA-MB-231 breast, in the experiment on SNB-19 CNS, with HL-60(TB) leukemia, in the experiment with SW-620 colon, in the experiment with ACHN renal and with HOP-62 NSCLC was greater than 10 µM throughout. The TGI in the experiment with NCI-H522 lung, with T-47D breast, in the experiment with RPMI-8226 leukemia, in the experiment with SK-MEL-28 melanoma, in the experiment on NCI-H460 lung and in the experiment with CAKI-1 renal was greater than 10 µM each time. In the experiment on MOLT-4 leukemia, this compound registered a TGI greater than 10 µM.

On to `COc1cc(/C=C2\NC(=O)N(/C=C3\C(=O)Oc4ccccc4C3=O)C2=O)ccc1O`, for which the TGI in the experiment on MDA-MB-231 breast was greater than 100 µM; in the experiment with SNB-19 CNS, greater than 100 µM; in the experiment on HL-60(TB) leukemia it was 62 µM; in the experiment on SW-620 colon it was greater than 100 µM; in the experiment on ACHN renal it was greater than 100 µM; with HOP-62 NSCLC it was greater than 100 µM. The TGI with NCI-H522 lung, in the experiment with T-47D breast, in the experiment with RPMI-8226 leukemia, in the experiment with NCI-H460 lung, with CAKI-1 renal and with MOLT-4 leukemia was greater than 100 µM each time.

On to `O=C(O)/C(=C\c1ccccc1)Cc1ccccc1`, for which the TGI in the experiment with MDA-MB-231 breast, with SNB-19 CNS, in the experiment on HL-60(TB) leukemia, in the experiment on SW-620 colon, in the experiment with ACHN renal and in the experiment with HOP-62 NSCLC was greater than 100 µM in each case. Moreover, the TGI in the experiment with NCI-H522 lung, in the experiment with T-47D breast, with RPMI-8226 leukemia, in the experiment on SK-MEL-28 melanoma, in the experiment on NCI-H460 lung and in the experiment on CAKI-1 renal was greater than 100 µM throughout. For the same compound, the TGI with MOLT-4 leukemia is greater than 100 µM.
